Assay [1] relates to Escherechia coli. Put plainly: in vivo antibacterial activity against acute infections in mice, oral. As to conditions: for responders at 200 mg/kg / responders at 50 mg/kg: Escherichia coli, in Mus musculus, po, 96 h; for responders at 200 mg/kg: read-out: percent animals which survived, E. coli, *200 mg./kg., mice, oral, 200 mg./kg. (footnote *); for responders at 50 mg/kg: read-out: percent animals which survived, E. coli, **50 mg./kg., mice, oral, 50 mg./kg.; for percent animals which survived, E. coli 25 / percent animals which survived, E. coli 100: mice, oral; for percent animals which survived, E. coli 25: 25 mg./kg.; for percent animals which survived, E. coli 100: 100 mg./kg.
Procedure: (§1) The in vivo efficacy of the compounds of the instant invention is determined by the antibacterial activity against acute infections in mice. The acute experimental infections are produced by the intraperitoneal inoculation of standardized culture suspended in either 5% hog gastric mucin or broth.
(§2) Stock cultures of test organisms are normally maintained on slants or in liquid medium. When not routinely used they are maintained at refrigerator temperature or in a lyophilized state. When it becomes to use a culture in animal protection tests the culture is suspended in a volume of saline or broth, and the density of the suspension is measured by a photo-electric colorimeter. From this stock, ten-fold dilutions are prepared. Each dilution is inoculated into a series of mice in order to determine the LD100, the LD100 being the lowest concentration of organisms required to produce 100 percent deaths. […] This means that we are using about 10 LD100 or 10 times the minimum dose required to kill mice. Such a test would also include the use of control animals which receive an inoculum of 10^^-4, 10^^-5 and possibly 10^^-6. These dilutions are included as a check on possible variation in virulence which can occur. Having previously determined, through the virulence titration, that 10^^-4 was the maximum dilution that will kill we naturally expect these animals to die, usually within 24 hours.
(§3) Each organism has its own standardized inoculum level. Some, such as Staphylococcus, may be used at 10^^-1, while others like Streptococcus require weekly animal passage in order to maintain virulence.
(§4) When evaluating an antibiotic for its effectiveness after a single dose, the dose is usually administered 0.5 hour after inoculating the mice with the lethal concentration of organisms. In this type of treatment schedule surviving mice are usually held for 4 days after the treatment and the percent alive is calculated.

Assay [2] has as its system Streptococcus pyogenes. Described as above. As to conditions: for percent animals which survived, S. pyogenes 50: 50 mg./kg.; for percent animals which survived, S. pyogenes 200: 200 mg./kg.
Procedure: as §1, §2, §3, §4
Assay [3] relates to Escherechia coli. In words: in vitro activity (MIC), two-fold serial dilution technique. As to conditions: Escherichia coli, 37° C., approximately 24 hours, method gives concentrations as mcg. of compound per ml., read-out: MIC (Minimal Inhibitory Concentration) E. coli. The format is cell-based.
Assay [4] has as its system Staphylococcus aureus. The description is as above. It counts as cell-based. As to conditions: 37° C., approximately 24 hours, method gives concentrations as mcg. of compound per ml., read-out: MIC (Minimal Inhibitory Concentration) S. aureus.
Assay [5] has as its system Salmonella cholerasuis var. kunzendorf. Put plainly: protection against systemic challenge infection in swine. It counts as in vivo. As to conditions: intramuscular, day 10, placebo 83. On the procedure:
Young, 6-8 week old pigs are conditioned for 14 days in isolation rooms and maintained during the entire study on a basal ration consisting of ground yellow corn (78.4%), soybean meal (15%), alfalfa meal (2%), meat bone scraps (2.5%), limestone (0.4%), dicalcium phosphate (0.65%), iodized salt (0.5%), Vitamin pre-mix PPM-5 (0.5%), quadruple delamix (0.05%) and zinc carbonate (7.8 g./100 lbs. mix). All the pigs, which are divided into groups of six, are inoculated on day 0 with 4 ml. (approximately 2.0 × 10^8 organisms) of the stock inoculating suspension. Treatment with the quinoxaline-di-N-oxides of the present invention is carried out on day 0 and day 1 by intramuscular injection at 12 hour intervals at doses of 2.5 and 5 mg./kg. On day 10 the percent mortality in each group is calculated.

Assay [6] can be described thus: growth promotion in swine. As to conditions: 50 g./ton of feed, 28 days; for Weight Gain Index: control = 100. The format is in vivo. Here is the method: In practice, growth promotion is determined in swine, for instance, by the method wherein young pigs from 5-6 weeks of age and averaging 21.5 lbs. initial body weight are maintained on an ad libitum consumption of water and feed formulation consisting of ground yellow corn (58.1%), soybean meal (19.6%), alfalfa meal (2.0%), dried skim milk (5.0%), dried whey (10.0%), stabilized animal fat (2.5%), limestone (0.6%), dicalcium phosphate (1.1%), iodized salt (0.5%), vitamin premix PPM-5 (0.5%), quadruple delamix (0.05%), and zinc carbonate (156 g./2000 lbs. mix). The pigs are divided into groups of 32 pigs each and are held for a pre-experimental period of 3 days prior to starting the experiment. The quinoxaline-di-N-oxides of the present invention are added to the feed at a ratio of 50 g. of compound per ton of feed. After 28 days the efficacy of said added compounds on growth promotion is measured by a comparison of the growth in terms of weight gain of the treated animals with the untreated control group, which is arbitrarily assigned a weight gain Index of 100. For example, if a compound effects a growth 23% greater than the control group (with an Index of 100) it would be assigned a value of 123, etc.
Employing the previously described procedure for determining growth promotion in animals, the following quinoxaline-di-N-oxides were tested at 50 g./ton of feed in swine for a period of 28 days and provided the following results: […]

Values after ≈ are worked out from the molar mass of the structure shown. Structures can show the parent of a compound that is named as a salt. Where only a bound is given, the exact number is not on record here.

`CCCC(=O)OCCOC(=O)c1c(C)[n+]([O-])c2ccccc2[n+]1[O-]`: in assay [1], the responders at 200 mg/kg was 90% and the responders at 50 mg/kg turned out to be 80%.
Take `CCN(CC)CC(C)OC(=O)c1c(C)[n+]([O-])c2ccccc2[n+]1[O-]` (centres unmarked) [H CH(CH3)CH2 N(C2 H5)2.HCl]: in assay [1], the “percent animals which survived, E. coli 25” value is recorded as 0% and the “percent animals which survived, E. coli 100” value is 60%. Also, in assay [2], the “percent animals which survived, S. pyogenes 50” value was found to be 20% and the “percent animals which survived, S. pyogenes 200” value was found to be 80%.
Regarding `Cc1c(C(=O)OCCOC(=O)CCC(=O)O)[n+]([O-])c2ccccc2[n+]1[O-]` [drawing 100], in assay [1], the responders at 200 mg/kg amounted to 100% and the responders at 50 mg/kg was 80%.
Consider `CCN(C)CCOC(=O)c1c(C)[n+]([O-])c2ccccc2[n+]1[O-].Cl` [H (CH2)2 N(CH3)C2 H5.HCl, 3-Methyl-2-quinoxalinecarboxylic acid, 2-(methylethylamino)-ethyl ester, 1,4-dioxide hydrochloride], for which, in assay [3], the MIC was determined as 12.5 µg/mL. Further, in assay [1], the “percent animals which survived, E. coli 25” value came to 0% and the “percent animals which survived, E. coli 100” value is on record as 80%. Besides, the MIC in assay [4] stood at 100 µg/mL. For the same molecule, in assay [2], the “percent animals which survived, S. pyogenes 50” value stood at 60% and the “percent animals which survived, S. pyogenes 200” value came out at 100%.
For the molecule `Cc1c(C(=O)OCCOC(=O)CCC(=O)O)[n+]([O-])c2ccccc2[n+]1[O-]` [drawing 83], the MIC in assay [3] is greater than 200 µg/mL; in assay [4], 200 µg/mL (≈ 549 µM).
On to `CC(=O)OCCOC(=O)c1c(C)[n+]([O-])c2ccccc2[n+]1[O-]` [drawing 85], for which, in assay [1], the “percent animals which survived, E. coli 25” value is 80% and the “percent animals which survived, E. coli 100” value was found to be 100%. In assay [2], the “percent animals which survived, S. pyogenes 50” value came to 80% and the “percent animals which survived, S. pyogenes 200” value is reported as 80%.
With `Cc1c(C(=O)OCCOC(=O)OCC(C)C)[n+]([O-])c2ccccc2[n+]1[O-]`, the responders at 200 mg/kg in assay [1] turned out to be 90%.
On to `Cc1c(C(=O)OCCOC(=O)CCl)[n+]([O-])c2ccccc2[n+]1[O-]`, for which, in assay [1], the responders at 200 mg/kg came out at 100% and the responders at 50 mg/kg was 100%.
Consider `CCNC(=O)OCCOC(=O)c1c(C)[n+]([O-])c2ccccc2[n+]1[O-]` [drawing 89], for which, in assay [1], the responders at 200 mg/kg was 30% and the responders at 50 mg/kg amounted to 40%.
Take `Cc1c(C(=O)OC(C)CN(C)C)[n+]([O-])c2ccccc2[n+]1[O-].Cl` (centres unmarked) [H CH(CH3)CH2 N(CH3)2.HCl, 3-Methyl-2-quinoxalinecarboxylic acid, 1-methyl-2-(dimethyl-amino)ethyl ester, 1,4-dioxide hydrochloride]: the MIC is 100 µg/mL in assay [3] and 200 µg/mL in assay [4].
For `Cc1c(C(=O)OCCOC(=O)C[N+](C)(C)C)[n+]([O-])c2ccccc2[n+]1[O-]`, in assay [1], the responders at 200 mg/kg came to 90% and the responders at 50 mg/kg stood at 40%.
Consider `Cc1c(C(=O)OCCCN(C)C)[n+]([O-])c2ccccc2[n+]1[O-].Cl` [H (CH2)3 N(CH3)2.HCl, 3-Methyl-2-quinoxalinecarboxylic acid, 3-(dimethylamino)propyl ester, 1,4-dioxide hydrochloride], for which, in assay [1], the “percent animals which survived, E. coli 25” value stood at 40% and the “percent animals which survived, E. coli 100” value stood at 80%. Also, in assay [2], the “percent animals which survived, S. pyogenes 50” value was found to be 20% and the “percent animals which survived, S. pyogenes 200” value was found to be 100%.
The corresponding values for `Cc1c(C(=O)OCCO)[n+]([O-])c2ccccc2[n+]1[O-]` [H (CH2)2 OH, 3-Methyl-2-quinoxalinecarboxylic acid, 2-hydroxyethyl ester, 1,4-dioxide] are 80%, 100%, 60% and 100%.
Consider `CCC(=O)OCCOC(=O)c1c(C)[n+]([O-])c2ccccc2[n+]1[O-]`, for which, in assay [1], the responders at 200 mg/kg turned out to be 90% and the responders at 50 mg/kg turned out to be 80%.
Take `CC1(C)S[C@@H]2[C@H](NC(=O)Cc3ccccc3)C(=O)N2[C@H]1C(=O)O` [Benzylpenicillin (K Salt), Benzylpenicillin, reference compound]: the MIC in assay [3] is greater than 100 µg/mL; in assay [4], 0.156 µg/mL.
On to `CCCCC(=O)OCCOC(=O)c1c(C)[n+]([O-])c2ccccc2[n+]1[O-]`, for which, in assay [1], the responders at 200 mg/kg came out at 100% and the responders at 50 mg/kg was 60%.
With `CCOC(=O)OCCOC(=O)c1c(C)[n+]([O-])c2ccccc2[n+]1[O-]`, in assay [1], the “percent animals which survived, E. coli 100” value is on record as 30%.
Take `CCN(CC)CCOC(=O)c1c(C)[n+]([O-])c2ccccc2[n+]1[O-].Cl` [H (CH2)2 N(C2 H5)2.HCl, 3-Methyl-2-quinoxalinecarboxylic acid, 2-(diethylamino)ethyl ester, 1,4-dioxide hydrochloride]: the MIC in assay [3] came out at 12.5 µg/mL; in assay [4], 100 µg/mL.
The corresponding values for `CCN(CC)CCCOC(=O)c1c(C)[n+]([O-])c2ccccc2[n+]1[O-].Cl` [H (CH2)3 N(C2 H5)2.HCl, 3-Methyl-2-quinoxalinecarboxylic acid, 3-(diethylamino)propyl ester, 1,4-dioxide hydrochloride] are 12.5 µg/mL and 200 µg/mL.
As to `CCCCCC(=O)OCCOC(=O)c1c(C)[n+]([O-])c2ccccc2[n+]1[O-]`, in assay [1], the responders at 200 mg/kg came to 90% and the responders at 50 mg/kg turned out to be 0%.
With `CCNC(=O)OCCOC(=O)c1c(C)[n+]([O-])c2ccccc2[n+]1[O-]` [drawing 82], the MIC is greater than 200 µg/mL in assay [3] and 25 µg/mL (≈ 74.6 µM) in assay [4].
For the molecule `CC(=O)OCCOC(=O)c1c(C)[n+]([O-])c2ccccc2[n+]1[O-]` [3-Methyl-2-quinoxalinecarboxylic acid, 2-(acetyloxy)ethyl ester, 1,4-dioxide], the “% Mortality” value in assay [5] (2.5 mg./kg. × 4 at 12 hour intervals) is recorded as 67%; in assay [5] (5.0 mg./kg. × 4 at 12 hour intervals), 17%.
As to `Cc1c(C(=O)OCCOC(=O)CCCC(=O)O)[n+]([O-])c2ccccc2[n+]1[O-]`, in assay [1], the responders at 200 mg/kg turned out to be 90% and the responders at 50 mg/kg was 50%.
The matching figures for `CCCCCCCCCC(=O)OCCOC(=O)c1c(C)[n+]([O-])c2ccccc2[n+]1[O-]`: 100% and 70%.
`CCCCCCCC(=O)OCCOC(=O)c1c(C)[n+]([O-])c2ccccc2[n+]1[O-]`: in assay [1], the responders at 200 mg/kg came to 100% and the responders at 50 mg/kg came out at 50%.
With `Cc1c(C(=O)OCCN)[n+]([O-])c2ccccc2[n+]1[O-]` [H (CH2)2 NH2.HCl, 3-Methyl-2-quinoxalinacarboxylic acid, 2-aminoethyl ester, 1,4-dioxide hydrochloride], in assay [6], the “% Growth Over Control” value was found to be 39% and the “Weight Gain Index” value was 139. For the same molecule, in assay [1], the “percent animals which survived, E. coli 25” value turned out to be 100%. Also, in assay [2], the “percent animals which survived, S. pyogenes 50” value was found to be 30% and the “percent animals which survived, S. pyogenes 200” value was 90%.
`Cc1c(C(=O)OCCN(C)C)[n+]([O-])c2ccccc2[n+]1[O-].Cl` [H (CH2)2 N(CH3)2.HCl, 3-Methyl-2-quinoxalinecarboxylic acid, 2-(dimethylamino)ethyl ester, 1,4-dioxide hydrochloride]: in assay [3], the MIC came to 6.25 µg/mL. Besides, in assay [1], the “percent animals which survived, E. coli 25” value amounted to 40% and the “percent animals which survived, E. coli 100” value is reported as 100%. Further, the MIC in assay [4] came out at 100 µg/mL. Also, in assay [2], the “percent animals which survived, S. pyogenes 50” value is reported as 20% and the “percent animals which survived, S. pyogenes 200” value came to 70%.
In the case of `CC(=O)OCCOC(=O)c1c(C)[n+]([O-])c2ccccc2[n+]1[O-]` [drawing 80], the MIC was found to be 50 µg/mL (≈ 163 µM) in assay [3] and 12.5 µg/mL (≈ 40.8 µM) in assay [4].
Regarding `CC(=O)OCCOC(=O)c1c(C)[n+]([O-])c2ccccc2[n+]1[O-]` [drawing 103], in assay [6], the “% Growth Over Control” value is 53% and the “Weight Gain Index” value is 153.
Turning to `CCCCCCC(=O)OCCOC(=O)c1c(C)[n+]([O-])c2ccccc2[n+]1[O-]`, in assay [1], the responders at 200 mg/kg was found to be 100% and the responders at 50 mg/kg is 10%.
